Measurements: patent US9498483B2, “2,3,5-trisubstituted thiophene compounds and uses thereof” (priority 2010, dated 2016)

Legend:
[1] = tested on: HCV replicon I389luc-ubi-neo/NS3-3′/ET in ET (Huh-lucubineo-ET) cells; assay: Replicon assay (Biological Example 2), luciferase readout; format: cell-based; details: Hepatitis C virus
Procedure, shortened: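 EC50 values come from Hill fits of % inhibition of replicon-driven firefly luciferase, relative to no-compound wells. Compounds were serially diluted (10 points, 3-fold, 0.1 nM–50 μM final, 0.5% DMSO) onto ET replicon cells and read after 48 h.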

[2] = molecular target: T1, HCV polymerase (Hepatitis C virus genotype 1b, UniProt Q9WMX2); assay: Polymerase assay of Biological Example 1 (IC50 values of Table 3); format: biochemical; details: IC50 values of Table 3, polymerase assay of Biological Example 1; read-out: NS5B-enzyme3
T1 construct: (His)6 (C); made in house; host or cells: XL-1 cells (E. coli, by own knowledge)

[3] = ET cells, luciferase activity 48 hours after compound

| SMILES | IC50 ([1]; between 100 nM and 5.0 uM) | IC50 [2] | IC50 [1, 3] |
| --- | --- | --- | --- |
| O=C(O)c1sc(-c2ccccc2)cc1N1C(=O)CN(S(=O)(=O)c2ccccc2F)CC1C1CCCCC1 (centres unmarked) [Compound 40, 3-[2-Cyclohexyl-4-(2-fluoro-benzenesulfonyl)-6-oxo-piperazin-1-yl]-5-phenyl-thiophene-2-carboxylic acid] | 100 to 5000 nM | 13 nM |  |
| CC(C)(C)C#Cc1cc(N2C(=O)C(CCO)CC[C@H]2C2CCCCC2)c(C(=O)O)s1 (single isomer, unassigned) [Compound 343] |  | 1 nM | ≤ 100 nM |
| CC(C)(C)C#Cc1cc(N2C(=O)C(CCCO)(CCCO)OC[C@H]2C2CCCCC2)c(C(=O)O)s1 [Compound 115, 3-[(R)-5-Cyclohexyl-2,2-bis-(3-hydroxy-propyl)-3-oxo-morpholin-4-yl]-5-(3,3-dimethyl-but-1-ynyl)-thiophene-2-carboxylic acid] | 100 to 5000 nM | 4 nM |  |
| CNC(=O)c1ccc(S(=O)(=O)N2CC(=O)N(c3cc(-c4ccccc4)sc3C(=O)O)C(C3CCCCC3)C2)cc1 (centres unmarked) [Compound 98, 3-[2-Cyclohexyl-4-(4-methylcarbamoyl-benzenesulfonyl)-6-oxo-piperazin-1-yl]-5-phenyl-thiophene-2-carboxylic acid] | 100 to 5000 nM | 3 nM |  |
| Cc1ccc(-c2cc(N3C(=O)CN(S(=O)(=O)c4ccc(N5C[C@H]6C[C@@H]5CO6)nc4)C[C@H]3C3CCCCC3)c(C(=O)O)s2)cc1 [Compound 289, 3-{(R)-2-Cyclohexyl-4-[(1R,4R)-6-(2-oxa-5-aza-bicyclo[2.2.1]hept-5-yl)-pyridine-3-sulfonyl]-6-oxo-piperazin-1-yl}-5-p-tolyl-thiophene-2-carboxylic acid] |  | 1 nM | ≤ 100 nM |
| CC(C)(C)C#Cc1cc(N2C(=O)CN(S(=O)(=O)c3c(Cl)cccc3Cl)C[C@H]2C2CCCCC2)c(C(=O)O)s1 [Compound 282, 3-[(R)-2-Cyclohexyl-4-(2,6-dichloro-benzenesulfonyl)-6-oxo-piperazin-1-yl]-5-(3,3-dimethyl-but-1-ynyl)-thiophene-2-carboxylic acid] | 100 to 5000 nM | 31 nM |  |
| O=C(O)c1sc(-c2ccc(C(F)(F)F)cc2)cc1N1C(=O)CCCC1C1CCCCC1 (centres unmarked) [Compound 117, 3-(2-Cyclohexyl-6-oxo-piperidin-1-yl)-5-(4-trifluoromethyl-phenyl)-thiophene-2-carboxylic acid] |  | 739 nM | ≥ 5000 nM |
| CC(C)(C)C#Cc1cc(N2C(=O)COC[C@H]2C2CCCCC2)c(C(=O)O)s1 [Compound 236, 3-((R)-3-Cyclohexyl-5-oxo-morpholin-4-yl)-5-(3,3-dimethyl-but-1-ynyl)-thiophene-2-carboxylic acid] |  | 3 nM | ≤ 100 nM |
| C[C@H]1CN(c2ccc(S(=O)(=O)N3CC(=O)N(c4cc(-c5ccccc5)sc4C(=O)O)[C@H](C4CCCCC4)C3)cn2)CCN1 [Compound 145, 3-{(R)-2-Cyclohexyl-4-[6-((S)-3-methyl-piperazin-1-yl)-pyridine-3-sulfonyl]-6-oxo-piperazin-1-yl}-5-phenyl-thiophene-2-carboxylic acid] |  | 1 nM | ≤ 100 nM |
| O=C(O)c1sc(-c2ccccc2)cc1N1C(=O)CN(S(=O)(=O)c2ccc(-c3ccn[nH]3)nc2)C[C@H]1C1CCCCC1 [Compound 209, 3-{(R)-2-Cyclohexyl-6-oxo-4-[6-(2H-pyrazol-3-yl)-pyridine-3-sulfonyl]-piperazin-1-yl}-5-phenyl-thiophene-2-carboxylic acid] | 100 to 5000 nM | 1 nM |  |
| C[C@@H]1CN(c2ccc(S(=O)(=O)N3CC(=O)N(c4cc(-c5ccccc5)sc4C(=O)O)[C@H](C4CCCCC4)C3)cn2)C[C@H](C)O1 [Compound 167, 3-{(R)-2-Cyclohexyl-4-[6-((2R,6S)-2,6-dimethyl-morpholin-4-yl)-pyridine-3-sulfonyl]-6-oxo-piperazin-1-yl}-5-phenyl-thiophene-2-carboxylic acid] |  | 3.5 nM | ≤ 100 nM |
| COc1ccc(S(=O)(=O)N2CC(=O)N(c3cc(C#CC(C)(C)C)sc3C(=O)O)[C@H](C3CCCCC3)C2)cn1 [Compound 191, 3-[(R)-2-Cyclohexyl-4-(6-methoxy-pyridine-3-sulfonyl)-6-oxo-piperazin-1-yl]-5-(3,3-dimethyl-but-1-ynyl)-thiophene-2-carboxylic acid] |  | 1 nM | ≤ 100 nM |
| CC(C)(C)C#Cc1cc(N2C(=O)C(O)(CCCO)CCC2C2CCCCC2)c(C(=O)O)s1 (centres unmarked) [Compound 11, 3-[6-Cyclohexyl-3-hydroxy-3-(3-hydroxy-propyl)-2-oxo-piperidin-1-yl]-5-(3,3-dimethyl-but-1-ynyl)-thiophene-2-carboxylic acid] |  | 8 nM | ≤ 100 nM |
| CC(C)(C)C#Cc1cc(N2C(=O)[C@H](CC(O)CO)OC[C@H]2C2CCCCC2)c(C(=O)O)s1 (stereo partly drawn) [Compound 331, 3-[(2S,5R)-5-Cyclohexyl-2-(2,3 dihydroxy-propyl)-3-oxo-morpholin-4-yl]-5-(3,3-dimethyl-but-1-ynyl)-thiophene-2 carboxylic acid] | 100 to 5000 nM | 8 nM |  |
| O=C(O)c1sc(-c2ccc(Cl)cc2)cc1N1C(=O)CN(S(=O)(=O)c2ccc(N3C[C@H]4C[C@@H]3CO4)nc2)C[C@H]1C1CCCCC1 [Compound 274, 5-(4-Chloro-phenyl)-3-{(R)-2-cyclohexyl-4-[(1R,4R)-6-(2-oxa-5-aza-bicyclo[2.2.1]hept-5-yl)-pyridine-3-sulfonyl]-6-oxo-piperazin-1-yl}-thiophene-2-carboxylic acid] |  | 1 nM | ≤ 100 nM |
| O=C(O)c1sc(-c2ccccc2)cc1N1C(=O)CN(S(=O)(=O)c2ccc(OC(F)(F)F)cc2)CC1C1CCCCC1 (centres unmarked) [Compound 53] | 100 to 5000 nM | 24 nM |  |
| COc1ccc(S(=O)(=O)N2CC(=O)N(c3cc(C#CC(C)(C)C)sc3C(=O)O)[C@H](C3CCCCC3)C2)cc1 [Compound 190, 3-[(R)-2-Cyclohexyl-4-(4-methoxy-benzenesulfonyl)-6-oxo-piperazin-1-yl]-5-(3,3-dimethyl-but-1-ynyl)-thiophene-2-carboxylic acid] |  | 1 nM | ≤ 100 nM |
| CC(C)(C)C#Cc1cc(N2C(=O)C(N)CC[C@H]2C2CCCCC2)c(C(=O)O)s1 (stereo partly drawn) [Compound 340, 3-((S)-3-Amino-6-cyclohexyl-2-oxo-piperidin-1-yl)-5-(3,3-dimethyl-but-1-ynyl)-thiophene-2-carboxylic acid] |  | 8 nM | ≤ 100 nM |
| CCCCCS(=O)(=O)N1CC(=O)N(c2cc(-c3ccccc3)sc2C(=O)O)C(C2CCCCC2)C1 (centres unmarked) [Compound 31, 3-[2-Cyclohexyl-6-oxo-4-(pentane-1-sulfonyl)-piperazin-1-yl]-5-phenyl-thiophene-2-carboxylic acid] | 100 to 5000 nM | 47 nM |  |
| C[C@H](O)C[C@H]1OC[C@@H](C2CCCCC2)N(c2cc(C#CC(C)(C)C)sc2C(=O)O)C1=O [Compound 337, 3-[(2R,5R)-5-Cyclohexyl-2-((S)-2-hydroxy-propyl)-3-oxo-morpholin-4-yl]-5-(3,3-dimethyl-but-1-ynyl)-thiophene-2-carboxylic acid] |  | 2 nM | ≤ 100 nM |
| CC(C)(C)C#Cc1cc(N2C(=O)CN(S(=O)(=O)c3cccc(C#N)c3)C[C@H]2C2CCCCC2)c(C(=O)O)s1 [Compound 259, 3-[(R)-4-(3-Cyano-benzenesulfonyl)-2-cyclohexyl-6-oxo-piperazin-1-yl]-5-(3,3-dimethyl-but-1-ynyl)-thiophene-2-carboxylic acid] | 100 to 5000 nM | 7 nM |  |
| O=C(O)c1sc(-c2ccccc2)cc1N1C(=O)CN(S(=O)(=O)c2ccc(N3CCCC3)nc2)C[C@H]1C1CCCCC1 [Compound 135, 3-[(R)-2-Cyclohexyl-6-oxo-4-(6-pyrrolidin-1-yl-pyridine-3-sulfonyl)-piperazin-1-yl]-5-phenyl-thiophene-2-carboxylic acid] |  | 2.33 nM | ≤ 100 nM |
| O=C(O)c1sc(-c2ccccc2)cc1N1C(=O)CN(S(=O)(=O)c2ccc(N3CCC3)nc2)CC1C1CCCCC1 (centres unmarked) [Compound 74, 3-[4-(6-Azetidin-1-yl-pyridine-3-sulfonyl)-2-cyclohexyl-6-oxo-piperazin-1-yl]-5-phenyl-thiophene-2-carboxylic acid] |  | 12 nM | ≤ 100 nM |
| CC(C)(C)C#Cc1cc(N2C(=O)C3(CCOCC3)OC[C@H]2C2CCCCC2)c(C(=O)O)s1 [Compound 325, 3-((R)-3-Cyclohexyl-5-oxo-1,9-dioxa-4-aza-spiro[5.5]undec-4-yl)-5-(3,3-dimethyl-but-1-ynyl)-thiophene-2-carboxylic acid] |  | 6 nM | ≤ 100 nM |
| Cc1ccc(-c2cc(N3C(=O)C(O)CCC3C3CCCCC3)c(C(=O)O)s2)cc1 (centres unmarked) [Compound 317, 3-(6-Cyclohexyl-3-hydroxy-2-oxo-piperidin-1-yl)-5-p-tolyl-thiophene-2-carboxylic acid] | 100 to 5000 nM | 24.1 nM |  |
| CC(C)(C)C#Cc1cc(N2C(=O)C(CC(=O)N3CCOCC3)OC[C@H]2C2CCCCC2)c(C(=O)O)s1 (stereo partly drawn) [Compound 294, 3-[(R)-5-Cyclohexyl-2-(2-morpholin-4-yl-2-oxo-ethyl)-3-oxo-morpholin-4-yl]-5-(3,3-dimethyl-but-1-ynyl)-thiophene-2-carboxylic acid] | 100 to 5000 nM | 7 nM |  |
| O=C(O)c1sc(-c2ccc(Cl)cc2)cc1N1C(=O)COC[C@H]1C1CCCCC1 [Compound 293, 5-(4-Chloro-phenyl)-3-((R)-3-cyclohexyl-5-oxo-morpholin-4-yl)-thiophene-2-carboxylic acid] | 100 to 5000 nM | 5 nM |  |
| CC(C)(C)C#Cc1cc(N2C(=O)[C@@](C)(CCC(C)(C)O)OC[C@H]2C2CCCCC2)c(C(=O)O)s1 [Compound 319, 3-[(2R,5R)-5-Cyclohexyl-2-(3-hydroxy-3-methyl-butyl)-2-methyl-3-oxo-morpholin-4-yl]-5-(3,3-dimethyl-but-1-ynyl)-thiophene-2-carboxylic acid] |  | 4 nM | ≤ 100 nM |
